Reference: patent US20080119483A1, “COMPOSITIONS AND METHODS FOR INHIBITING PROTOZOAN GROWTH” (priority 2006, published 2008)
Several values for one entry are separate records, joined by “and”; a condition that tells them apart may be missing. Equal entries are not always repeated. Entries after “also recorded” stand apart in the source; their conditions may differ. Where two headings read alike, the source gives them in different places. Starred links: 1 amine or outer side, 2 acyl side, 3 side chain; linkers in the order of their positions; H or OH if unused. Non-standard residues stand in square brackets, D forms with d. Residues, ends and D or L forms follow the SMILES beside them. X1 = CC[C@@H](C)[C@@H](O[*:1])C(=O)[*:2]; NMeVal(β-OH) = CN[C@H](C(=O)O)C(C)(C)O; NMeF = CN[C@@H](Cc1ccccc1)C(=O)O; aIle = CC[C@@H](C)[C@H](N)C(=O)O; NMeV = CN[C@H](C(=O)O)C(C)C

Experiments:
[1] = system: L. major LV39 WT promastigotes; experiment: microbe, parasite or virus in culture; assay type: cell-based, Leishmania major
Procedure: (§1) Log phase L. major LV39 WT and spt2 promastigotes were inoculated at 1.0×10^5 cells/ml and culture densities were determined 48 hours later.
(§2) Wild type (WT) L. major LV39 clone 5 (Rho/SU/59/P), FV1 (MOHM/IL/80/Friedlin virulent clone 1), spt2^− (Δspt2::HYG/Dspt2::PAC), ads1^− (Δads1::HYG/Dads1::SAT), and spt2^−/+SPT2 (Δspt2::HYG/Dspt2::PAC/+pXG-SPT2) cells were grown in M199 with 10% FBS and supplements as described [Zhang, et al., 2003; Kapler, et al., 1990]. For growth inhibition assays, promastigotes were inoculated at 1.0×10^5 cells/ml (in T25 flasks, 5 ml of medium per flask) in various concentrations of drugs. All cultures contained equivalent amount of DMSO or methanol (0.1% or less, from drug stocks). After 48 or 96 (for ads1^− only) hours, culture densities were determined using a Coulter counter (Z1, Beckman) and effects of drugs on growth were assessed in relative to cultures grown in the absence of drugs.
A classical isobologram was constructed by plotting EC50s of drugs either alone or in combination.

[2] = system: L. major spt2^− promastigotes; experiment: microbe, parasite or virus in culture; assay type: cell-based, Leishmania major
Procedure: as §1, §2

[3] = system: L. major ads1^− promastigotes; experiment: Growth inhibition assay, EPL-null ads1^− mutant versus FV1 WT; assay type: cell-based, Leishmania major; conditions: 96 hours for ads1^−
Procedure: as §2

[4] = system: Leishmania major LV39 clone 5 promastigotes; experiment: Microtiter screen for synergy drugs (cellular ATP, luciferase based); assay type: cell-based; conditions: follow-up of class d hits
Source text: Following inoculation, parasites were allowed to grow until late logarithmic phase. […] Parasites were inoculated without any drug, singly with the two prototypic synergistic drugs myriocin or itraconazole, or both drugs, at varying concentrations.

[5] = system: L. major LV39 WT promastigotes; experiment: Composition of free sterols by GC/MS, WT promastigotes; assay type: cell-based, Leishmania major; conditions: for 5-dehydroepisterol (%) / 14-methylfecosterol (%) / Cholesterol (%) / Episterol (%) / Ergosterol (%) / Total sterols/cell: 48 hours
Procedure: (§3) Log phase L. major LV39 WT and spt2^− promastigotes were grown in the presence or absence of ITZ or CLT. Culture densities were determined 48 hours later and total lipids were extracted and the composition of free sterols was determined by GC/MS as described in Materials and Methods. ND: not detectable. Each experiment was repeated at least 3 times and results from one representative set were shown.
(§4) Here WT and spt2^− parasites were grown in various concentrations of ITZ (0.001 nM to 1 μM) or CLT (10 nM to 5 μM). Effects of ITZ and CLT on growth, sterol composition and DRM were analyzed after 48 hours. Basically, culture densities were determined using a particle counter and drugs' effects on growth were assessed in comparison to control cells (no drug); sterol lipids were extracted and analyzed by GC/MS and the percentage of 14-methylfecosterol (among all detectable sterol lipids) was used to reflect changes in sterol composition (see Table 2). DRMs were also isolated and the percentage of GP63 that were insoluble at 4° C. was used as an indicator for the integrity of DRM (see FIG. 2). Two to four independent experiments were performed and the averaged results were plotted in FIG. 3.
(§5) Total lipids were extracted using the Folch's method [Folch, et al., 1957]. Briefly, promastigotes were harvested by centrifugation and washed once with PBS. Pellets were resuspended in chloroform:methanol (2:1) at 1.0×10^8 cells/ml with the addition of cholesta-3,5-diene (Sigma-Aldrich, FW 368.7) at 0.5 mg/10^8 cells (6.6×10^7/cell). After vortexing for 30 s, cell debris was removed by centrifugation (1000 g for 10 min) and samples were washed with 0.2 volume of 0.9% NaCl. After centrifugation, supernatants were removed and the organic phase solutions were dried under a stream of nitrogen. Samples were then dissolved in chloroform:methanol (1:2) at 1.0×10^9 cells/ml.
(§6) Electron impact gas chromatography/mass spectrometry (GC/MS) analyses of sterol lipids were performed on a Finnigan (San Jose, Calif.) SSQ-7000 single-stage quadrupole mass spectrometer with a Varian (Walnut Creek, Calif.) 3400 GC, which is controlled by Finnigan ICIS software operated on a DEC alpha station. The extracts in solution […] were injected in a splitless mode and analyzed by GC on a Restek (Bellefonte, Pa.) RTX-5 column (15 m, 0.33 mm id, […]). The initial temperature of GC was set at 80° C. for 1 min, increased to 220° C. at a rate of 50° C./min, and then raised to a final temperature of 280° C. at a rate of 10° C./min. The temperatures of the injector, transfer line of the GC column, and of the ion-source were set at 280° C., 280° C., and 240° C., respectively. The full scan mass spectra (50 to 500 Dalton) were acquired at a rate of 1 scan/0.25 Sec.

[6] = system: L. major spt2^− promastigotes; experiment: Composition of free sterols by GC/MS, spt2^− promastigotes; assay type: cell-based, Leishmania major; conditions: 48 hours
Procedure: as §3, §4, §5, §6

[7] = Leishmania major, 48 h, LV39 WT promastigotes, 48 hours; read-out: EC50 in WT
[8] = Leishmania major, 48 h, read-out: EC50 in spt2^−
[9] = LV39 WT promastigotes, 48 hours; read-out: EC50 in WT
[10] = spt2^− promastigotes, 48 hours; read-out: EC50 in spt2^−

Compound: CCCCCCCCCCCCCCCCCCOCC(COP(=O)([O-])OCC[N+](C)(C)C)OC (racemic) [Edelfosine, 1-O-octadecyl-2-O-methyl-rac-glycero-3-phosphocholine]
- EC50 [1, 7]: 1500 nM
- EC50 [2, 8]: 5400 nM
- EC50 (WT)/EC50 (spt2^−) ([2]; ratio): 0.28
- Selectivity against spt2^− parasites (in words) ([2]; spt2^− versus LV39 WT): failed to show strong selectivity
- Sensitivity of ads1^− mutant in comparison to FV1 WT [3]: very similar EC50s; also recorded: little or no selectivity

Compound: CC(C)[C@@H]1NC(=O)[C@H](Cc2ccccc2)NC(=O)[C@@H]2NC(=O)[C@H](Cc3ccccc3)NC(=O)[C@@H]3CCCN3C(=O)CNC(=O)[C@H](Cc3ccccc3)NC(=O)[C@@H]3CNCCCC[C@@H](C(=O)O)NC(=O)[C@@H]4NC(=O)[C@H](CC(N)=O)NC(=O)CNC(=O)[C@H]([C@@H](O)C(=O)O)NC(=O)[C@H](CSC[C@@H](NC(=O)[C@H](CCC(N)=O)NC(=O)[C@H](CCCNC(=N)N)NC(=O)[C@@H](N)CS[C@H]4C)C(=O)N[C@@H](CS[C@H]2C)C(=O)N3)NC1=O [Cinnamycin]
- EC50 [1, 9]: 3100 nM
- EC50 (WT)/EC50 (spt2^−) ([2]; ratio): 1.0
- EC50 [2, 10]: 3100 nM
- Selectivity against spt2^− parasites (in words) ([2]; spt2^− versus LV39 WT): nearly equally well

Compound: C=C(C)C(=O)C(=CC(=O)O)OC [penicillic acid]
- Confirmation of synergy with itraconazole [4]: confirmed
- Synergy effect with itraconazole [4]: ~2 fold

Compound: CCn1nc(C(=O)O)c(=O)c2cc3c(cc21)OCO3 [cinoxacin]
- Confirmation of synergy with itraconazole [4]: not confirmed

Compound: Clc1ccccc1C(c1ccccc1)(c1ccccc1)n1ccnc1 [Clotrimazole]
- CLT concentration needed to achieve any noticeable effects on growth, sterol composition, or DRMs [1]: > 100 nM
- Growth (%) [1]: 76.9% and 78.7%
- Growth (%) ([2]; spt2^− + 0.2 μM CLT, 48 hours): 93.8%
- Growth (%) ([2]; spt2^− + 0.5 μM CLT, 48 hours): 62.8%
- 5-dehydroepisterol (%) ([5]; WT + 0.2 μM CLT): 63.7%
- 14-methylfecosterol (%) ([5]; WT + 0.2 μM CLT): 9.9%
- Cholesterol (%) ([5]; WT + 0.2 μM CLT): 4.5%
- Episterol (%) ([5]; WT + 0.2 μM CLT): 17.5%
- Ergosterol (%) ([5]; WT + 0.2 μM CLT): 4.4%
- Total sterols/cell ([5]; WT + 0.2 μM CLT): 3.3 × 10^8 /cell
- 5-dehydroepisterol (%) ([5]; WT + 0.5 μM CLT): 42.0%
- 14-methylfecosterol (%) ([5]; WT + 0.5 μM CLT): 47.1%
- Cholesterol (%) ([5]; WT + 0.5 μM CLT): 3.9%
- Episterol (%) ([5]; WT + 0.5 μM CLT): 5.1%
- Ergosterol (%) ([5]; WT + 0.5 μM CLT): 1.9%
- Total sterols/cell ([5]; WT + 0.5 μM CLT): 2.2 × 10^8 /cell
- 5-dehydroepisterol (%) ([6]; spt2^− + 0.2 μM CLT): 44.1%
- 14-methylfecosterol (%) ([6]; spt2^− + 0.2 μM CLT): 21.5%
- Cholesterol (%) ([6]; spt2^− + 0.2 μM CLT): 20.2%
- Episterol (%) ([6]; spt2^− + 0.2 μM CLT): 10.7%
- Ergosterol (%) ([6]; spt2^− + 0.2 μM CLT): 3.5%
- Total sterols/cell ([6]; spt2^− + 0.2 μM CLT): 3.5 × 10^8 /cell
- 5-dehydroepisterol (%) ([6]; spt2^− + 0.5 μM CLT): 23.9%
- 14-methylfecosterol (%) ([6]; spt2^− + 0.5 μM CLT): 50.3%
- Cholesterol (%) ([6]; spt2^− + 0.5 μM CLT): 21.1%
- Episterol (%) ([6]; spt2^− + 0.5 μM CLT): 3.5%
- Ergosterol (%) ([6]; spt2^− + 0.5 μM CLT): 1.2%
- Total sterols/cell ([6]; spt2^− + 0.5 μM CLT): 3.1 × 10^8 /cell

Compound: CC[C@@H](C)[C@@H]1NC(=O)[C@@H]2CCCN2C(=O)[C@H](Cc2ccccc2)N(C)C(=O)[C@H](Cc2ccccc2)NC(=O)[C@H](C(C)C)N(C)C(=O)[C@@H]([C@H](C)CC)OC(=O)[C@H](C(C)(C)O)N(C)C(=O)[C@H](CC(C)C)NC(=O)[C@H](C(C)C)N(C)C1=O [Aureobasidin A] (cyclo(F[NMeF]P[aIle][NMeV]L[NMeVal(β-OH)][X1][NMeV]))
- EC50 [1, 9]: 560 nM
- EC50 (WT)/EC50 (spt2^−) ([2]; ratio): 0.90
- EC50 [2, 10]: 620 nM
- Sensitivity of ads1^− mutant in comparison to FV1 WT [3]: very similar EC50s

Compound: C[C@@H]1[C@H](O)[C@@H](C)/C=C/C=C/C=C/C=C/C=C/C=C/C=C/[C@H](O[C@@H]2O[C@H](C)[C@@H](O)[C@H](N)[C@@H]2O)C[C@@H]2O[C@](O)(C[C@@H](O)C[C@@H](O)[C@H](O)CC[C@@H](O)C[C@@H](O)CC(=O)O[C@H]1C)C[C@H](O)[C@H]2C(=O)O [Amphotericin B]
- EC50 [1, 9]: 41 nM
- EC50 (WT)/EC50 (spt2^−) ([2]; ratio): 1.9
- EC50 [2, 10]: 22 nM
- Selectivity against spt2^− parasites (in words) ([2]; spt2^− versus LV39 WT): nearly equally well

Compound: Mevinolin
- EC50 ([1]; read-out: EC50 in WT; LV39 WT promastigotes, 48 hours): 15000 nM
- EC50 (WT)/EC50 (spt2^−) ([2]; ratio): 1.0
- EC50 ([2]; read-out: EC50 in spt2^−; spt2^− promastigotes, 48 hours): 15000 nM
- Selectivity against spt2^− parasites (in words) ([2]; spt2^− versus LV39 WT): did not cause the extreme hypersensitivity

Compound: OC1(c2ccc(-c3ccccc3)cc2)CN2CCC1CC2 (stereo not drawn) [3-(Biphenyl-4-yl)-3-hydroxyquinuclidine]
- EC50 [1, 7]: 1580 nM
- EC50 [2, 8]: 1120 nM
- EC50 (WT)/EC50 (spt2^−) ([2]; ratio): 1.4
- Selectivity against spt2^− parasites (in words) ([2]; spt2^− versus LV39 WT): did not cause the extreme hypersensitivity

Compound: CC(=O)N1CCN(c2ccc(OCC3COC(Cn4ccnc4)(c4ccc(Cl)cc4Cl)O3)cc2)CC1 (stereo not drawn) [Ketoconazole]
- Effect on growth [1]: only minor effect on growth
- EC50 ([1]; Leishmania major, 48 h, read-out: EC50 in WT): ~3100 nM
- EC50 [2, 8]: 10 nM
- EC50 (WT)/EC50 (spt2^−) ([2]; ratio): 310
- Effect of supplementation of ethanolamine or choline on the sensitivity in spt2^− parasites ([2]; spt2^− with EtN or choline): almost no effect
- Effect on sterol composition ([5]; LV39 WT, 5-10 nM): completely altered the sterol composition
- Sensitivity of ads1^− mutant in comparison to FV1 WT [3]: hypersensitive
